Results on 15 compounds are retold here after patent US20030065039A1, “Biologically active 1,3-bis-aromatic-prop-2-en-1-ones, 1,3-bis-aromatic-propan-1-ones, and 1,3-bis-aromatic-prop-2-yn-1-ones” (Statens Serum Institute, priority 1997, published 2003).

Values after ≈ are worked out from the molar mass of the structure shown.

The subject of one data set is Leishmania promastigotes. Nature of the data set: Leishmania promastigotes Assay. In kind it is cell-based. The following applies: Leishmania; promastigotes, 3H-thymidine uptake; read-out: Leishmania IC50 ± SD. The method, boiled down:
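L. major (WHO Iran vaccine strain) and L. donovani MHOM/KE/85/NLB 274 promastigotes (3×10^6/ml, day 3 and 6 cultures) exposed to compound 2 h at 26 °C, then 3H-thymidine 18 h; incorporation counted by scintillation. Microscopic counts and flagellar motility also assessed.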

Another data set concerns human lymphocytes. Put plainly: Lymphocyte Proliferation Assay. Type of data set: cell-based. The settings on record: Lymphocyte; PHA provoked proliferation of human lymphocytes; read-out: Lymphocytes IC50 ± SD. The procedure, abridged:
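Ficoll-isolated human blood mononuclear cells (0.63×10^5/ml) in RPMI 1640 with 5% FCS were cultured in triplicate with test compound and PHA or PPD for 3 or 7 days. Proliferation measured by ^3H-thymidine incorporation over the final 24 h; triplicate median recorded.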

The subject of the next data set is Plasmodium falciparum. Put plainly: Plasmodium falciparum Assay. The following applies: Plasmodium falciparum; 3-H-hypoxanthine incorporation, 48 hours; read-out: Plasmodium IC50 ± SD. Type of data set: cell-based. The procedure, abridged:
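Parasitized erythrocytes (~1% parasitemia, 5×10^8/ml) cultured 48 h in RPMI with test compound, with 3H-hypoxanthine added for the last 24 h. Growth inhibition read as 3H-hypoxanthine incorporation into parasite DNA by liquid scintillation; uninfected and untreated infected cultures run in parallel.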

The test system of another data set is Helicobacter pylori. Nature of the data set: Helicobacter species Assay (agar plate, MIC). In kind it is cell-based. The protocol: 20 strains of Helicobacter pylori were used in an agar plate assay. The compounds were incorporated in the agar plates at different concentrations as described in the examples and were then inoculated with different strains of Helicobacter pylori followed by incubation in a microaerophilic atmosphere at 37° C. for 72 hours. The number of colony-forming units (CFU) were counted after the incubation period. The MIC values were determined as the minimal concentration required to inhibit growth of the bacteria.
(§1) Stock solutions were made at a concentration of 1 mg/ml by dissolving 1 mg of each compound in 100 μl DMSO (dimethylsulfoxide) followed by addition of 900 μl of heat-inactivated fetal claf serum (HFCS). These stock solutions were diluted with HFCS to make solutions having the following concentrations: 320 μg/ml, 160 μg/ml, 80 μg/ml, 40 μg/ml and 20 μg/ml. Dilution rows were made with 3 ml aliquots in vials containing the compounds in the following final test concentrations: 16 μg/ml, 8 μg/ml, 4 μg/ml, 2 μg/ml and 1 μg/ml. As control was used DMSO-HFCS containing an amount of DMSO equal to the amount of test compound in the solution with 320 μg/ml compound.
Bacteria: 20 strains of Helicobacter pylori were used in an agar plate assay. The compounds were incorporated in the agar plates at different concentrations and then they were inoculated with different strains of Helicobacter pylori followed by incubation at microaerophilic atmosphere at 37° C. in 72 hours. The number of colony-forming units (CFU) were counted after the incubation period. The MIC values were determined as the minimal concentration required to inhibit growth of the bacteria.
as §1, with “concentrations: 2560 μg/ml, 1280 μg/ml, 640 μg/ml,” for “concentrations:”, “160 µg/ml and” for “160 μg/ml,”, “80” for “80 μg/ml, 40 μg/ml and 20”, “concentrations: 128 μg/ml, 64 μg/ml, 32 μg/ml, 12” for “concentrations: 16”, “8” for “8 μg/ml, 4 μg/ml, 2”, “and 4” for “and 1”
Bacteria: 20 strains of Helicobacter pylori were used in an agar plate assay. The same method as described above under Experiment A was employed and MIC values were determined.

The compound `CCCCOc1ccccc1/C=C/C(=O)c1ccc(OC)c(OC)c1OC` [2-OC4H9-2′,3′,4′-OCH3, 2-butoxy-2′,3′,4′-trimethoxychalcone] yielded a melting point of 129.4 to 130.2 °C. Moreover, the IC50 in the data set with Leishmania promastigotes was 26 ± 1 µM. For the same compound, the IC50 in the data set with human lymphocytes was found to be 52 ± 3 µM. The IC50 with Plasmodium falciparum worked out at 7.8 µM.
The corresponding values for `COc1ccc(C(=O)/C=C/c2ccccc2O)c(OC)c1OC` [2-OH-2′,3′,4′,-OCH3, 2-hydroxy-2′,3′,4′-trimethoxychalcone] are 122.6 to 123 °C, 9.3 ± 1 µM, 9 ± 0.7 µM and 10 µM.
In the same order, the values of `COc1cc(/C=C/C(=O)c2ccccc2N(C)C)cc(OC)c1` [2′-N(CH3)2-3,5-OCH3, 3,5-dimethoxy-2′-dimethylaminochalcone] are 159.8 to 160.5 °C, 7.3 ± 1 µM, 5.7 ± 0.3 µM and 13 µM.
Compound `COc1cc(/C=C/C(=O)c2ccccc2[N+](=O)[O-])cc(OC)c1` [2′-NO2-3,5-OCH3, 3,5-dimethoxy-2′-nitrochalcone] displayed a melting point of 98.4 to 98.9 °C. The concentration for half-maximal inhibition (IC50) with Leishmania promastigotes turned out to be 3.4 ± 0.5 µM. For the same compound, the IC50 in the data set with human lymphocytes was found to be 3.7 ± 0.2 µM. Also, the IC50 with Plasmodium falciparum was determined as 7.4 µM.
In the same order, the values of `CCCCOc1ccccc1C(=O)/C=C/c1cc(OC)cc(OC)c1` [2′-OC4H9-3,5-OCH3, 3,5-dimethoxy-2′-butoxychalcone] are 69.5 to 70.1 °C, 7.2 ± 1.2 µM, 13 ± 1 µM and 25 µM.
Regarding `COc1cc(/C=C/C(=O)c2ccccc2O)cc(OC)c1` [2′-OH-3,5-OCH3, 3,5-dimethoxy-2′-hydroxychalcone], the melting point lay in the range of 110.2 to 110.9 °C. In addition, the IC50 in the data set on Leishmania promastigotes stood at 3.8 ± 0.9 µM. Besides, in the data set on human lymphocytes, the IC50 came to 8.1 ± 0.8 µM. Moreover, the IC50 in the data set on Plasmodium falciparum worked out at 20 µM.
As to `COc1ccc(C(=O)/C=C/c2cccc(N(C)C)c2)c(OC)c1OC` [3-N(CH3)2-2′,3′,4′-OCH3, 3-dimethylamino-2′,3′,4′-trimethoxychalcone], the melting point lay in the range of 87.2 to 87.9 °C. In addition, in the data set on Leishmania promastigotes, the IC50 turned out to be 20 ± 3 µM. Further, in the data set with human lymphocytes, the IC50 was found to be 26 ± 1 µM. The half-maximal inhibitory concentration (IC50) with Plasmodium falciparum came to 12 µM.
Take `COc1ccc(C(=O)/C=C/c2cccc([N+](=O)[O-])c2)c(OC)c1OC` [3-NO2-2′,3′,4′-OCH3, 3-nitro-2′,3′,4′-trimethoxychalcone]: the melting point is 130.1 to 130.7 °C. In the data set on Leishmania promastigotes, the IC50 worked out at 17 ± 2 µM. Further, in the data set on human lymphocytes, the IC50 turned out to be 36 ± 2 µM. In the data set with Plasmodium falciparum, the IC50 was found to be 5.5 µM.
For the compound `COc1cc(/C=C/C(=O)c2cccc(N(C)C)c2)cc(OC)c1` [3′-N(CH3)2-3,5-OCH3, 3,5-dimethoxy-3′-dimethylaminochalcone], the melting point was 81.8 to 82.6 °C. Also, the IC50 in the data set on Leishmania promastigotes is 5.8 ± 0.7 µM. Moreover, the half-inhibitory concentration (IC50) with human lymphocytes amounted to 5 ± 0.2 µM. The IC50 with Plasmodium falciparum amounted to 29 µM.
Compound `COc1ccc(/C=C/C(=O)c2cccc([N+](=O)[O-])c2)c(OC)c1` [3′-NO2-2,4-OCH3, 2,4-dimethoxy-3′-nitrochalcone] gave a melting point of 88.1 to 88.7 °C. Besides, the IC50 in the data set on Leishmania promastigotes amounted to 8.6 µM. Moreover, the IC50 with human lymphocytes was found to be 18 ± 2 µM.
`COc1cc(/C=C/C(=O)c2cccc(O)c2)cc(OC)c1` [3′-OH-3,5-OCH3, 3,5-dimethoxy-3′-hydroxychalcone] had a melting point of 126.2 to 126.8 °C. Further, the IC50 in the data set with Leishmania promastigotes is 3.7 ± 0.6 µM. For the same compound, the IC50 in the data set on human lymphocytes worked out at 3.2 ± 0.4 µM. The IC50 with Plasmodium falciparum was determined as 28 µM.
On to `COc1ccc(C(=O)/C=C/c2ccc(C#N)cc2)c(OC)c1OC` [4-CN-2′,3′,4′-OCH3, 4-cyano-2′,3′,4′-trimethoxychalcone], for which the melting point was 131.7 to 133 °C. Also, the IC50 in the data set on Leishmania promastigotes came to 8.6 ± 0.9 µM. For the same compound, in the data set on human lymphocytes, the IC50 worked out at 5.4 ± 0.3 µM. Further, the IC50 with Plasmodium falciparum was 7.6 µM.
The compound `O=C(/C=C/c1ccc(Oc2ccccc2)cc1)c1ccc(F)cc1` [4′-F-4-OC6H5, 4-phenoxy-4′-fluorochalcone] came in with a melting point of 115.7 to 116 °C. Further, in the data set on Leishmania promastigotes, the 50% inhibitory concentration (IC50) was found to be 42 ± 6 µM. In addition, the IC50 in the data set with human lymphocytes amounted to 33 ± 2 µM.
Turning to `O=C(/C=C/c1ccc(Oc2ccccc2)cc1)c1ccc(C2CCCCC2)cc1` [4′-cC6H11-4-OC6H5, 4-phenoxy-4′-cyclohexylchalcone], the melting point fell in the range of 160.9 to 161.1 °C. Besides, the IC50 in the data set on Plasmodium falciparum was found to be 200 µM.
`COc1ccc(C(=O)/C=C/c2ccccc2[N+](=O)[O-])c(OC)c1OC` [PH98, 2-nitro-2′,3′,4′-trimethoxychalcone] came in with a melting point of 107.1 to 108 °C. Moreover, the MIC in the data set with Helicobacter pylori (Helicobacter pylori, 20 strains of H. pylori, agar plate, 72 hours, read-out: MIC) came out at 16 µg/mL (≈ 46.6 µM). The “strains of Helicobacter pylori inhibited” value in the data set with Helicobacter pylori (at a concentration of 16 μg/ml, 20 strains) was 4 out of 20. Besides, the “No. strains inhibited/No. strains tested” value in the data set with Helicobacter pylori (at the MIC of the same line) is recorded as 6/20. For the same compound, the IC50 with Leishmania promastigotes worked out at 5.9 ± 0.4 µM. The IC50 in the data set with human lymphocytes stood at 7 ± 0.6 µM. Also, in the data set with Plasmodium falciparum, the IC50 stood at 9.3 µM.
